The record followed here is ChEMBL document CHEMBL3351690, “Design, synthesis and structure--activity relationship (SAR) studies of imidazo[4,5-b]pyridine derived purine isosteres and their potential as cytotoxic agents” (Eur J Med Chem, 2015).

Data set [1] relates to MDA-MB-231. In words: Cytotoxicity against paclitaxel-resistant human MDA-MB-231 cells after 24 hrs by MTT assay. In kind it is functional, cell-based. The following applies: MDA-MB-231, 24 h.
The nature of data set [2]: Stability in mouse liver microsomes at 1 uM pre-incubated for 5 mins in presence of NADPH and measured after 45 mins by LC/MS method. The following applies: read-out: Stability. In kind it is ADME.
Data set [3] is described as follows: Stability in human liver microsomes at 1 uM pre-incubated for 5 mins in presence of NADPH and measured after 45 mins by LC/MS method. It is filed as ADME. The following applies: read-out: Stability. (In general: Liver microsomes are vesicles of endoplasmic reticulum, rich in cytochrome P450 enzymes.)
Data set [4] deals with MDA-MB-231. In words: Inhibition of cell proliferation of paclitaxel-resistant human MDA-MB-231 cells at 10 uM after 24 hrs by MTT assay. In kind it is functional. Conditions: MDA-MB-231, 24 h.
The nature of data set [5]: Cytotoxicity against human MES-SA cells after 24 hrs by MTT assay. In kind it is functional, cell-based. In general terms: Tetrazolium dyes change colour on reduction, which living cells bring about.
A short description of data set [6]: Cytotoxicity against human MDA435 cells after 24 hrs by MTT assay. In kind it is functional, cell-based. Conditions: MDA-MB-435, 24 h.
Data set [7] in a line: Cytotoxicity against human MES-SA/Dx5 cells after 24 hrs by MTT assay. In kind it is functional, cell-based. The following applies: MES-SA/Dx5, 24 h.
Data set [8] in a line: Cytotoxicity against human HL60 cells after 24 hrs by MTT assay. In kind it is functional, cell-based. Conditions: HL-60, 24 h.

Where only a bound is given, the exact number is not on record here.

One may read the IC50 as the concentration that gives 50% inhibition. Lower therefore signals greater potency in that assay. Take `c1ccc(-c2nc3cccnc3n2C2CCCC2)cc1`: it took 3000 nM to reach half-maximal inhibition in the data set on MDA-MB-231 [1] (IC50). That is a single-digit micromolar value. The same measure, in the same setting: for `c1ccc(-c2nc3ncccc3n2C2CCCC2)cc1` the value was 7000 nM. Compound `Cn1c(-c2ccccc2)nc2cccnc21` showed a 50% inhibitory concentration (IC50) in the data set on MDA-MB-231 [1] of 4100 nM. This IC50 is about 1.7-fold lower than that of the compound before. In the case of `Fc1ccc(-c2nc3cccnc3n2C2CCCC2)cc1`, the IC50 with MDA-MB-231 [1] was found to be 500 nM. On the same count and under the same terms, for `Fc1cc(F)cc(-c2nc3cccnc3n2C2CCCC2)c1` the value was 138 nM; for `Fc1cc(F)cc(-c2nc3ncccc3n2C2CCCCC2)c1`, 3800 nM; for `Cn1c(-c2cc(F)cc(F)c2)nc2ncccc21`, 2700 nM. The same measure, in the same setting: in the case of `FC(F)(F)c1cc(-c2nc3cccnc3n2C2CCCC2)cc(C(F)(F)F)c1` it was 112 nM; in that of `FC(F)(F)Oc1cccc(-c2nc3cccnc3n2C2CCCC2)c1`, 262 nM; in that of `Fc1cccc(-c2nc3cccnc3n2C2CCCCC2)c1`, 342 nM. The same measure, in the same setting: in the case of `Cc1ccc(-c2nc3cccnc3n2C2CCCCC2)cc1` it was 7000 nM. Turning to `CCS(=O)(=O)c1cccc(-c2nc3cccnc3n2C2CCCCC2)c1`, the concentration for half-maximal inhibition (IC50) in the data set with MDA-MB-231 [1] came out at 164 nM. On the same count and under the same terms, in the case of `Cc1cccc(-c2nc3cccnc3n2C2CCCC2)c1Cl` it was 646 nM; in that of `CN(C)c1cccc(-c2nc3cccnc3n2C2CCCC2)c1`, 455 nM; in that of `N#Cc1ccc(-c2nc3cccnc3n2C2CCCC2)cc1F`, 2000 nM. On the same count and under the same terms, for `COc1ccc(-c2nc3cccnc3n2C2CCCCC2)cc1` the value was 112 nM.

The compound `c1ccc(Oc2ccc(-c3nc4cccnc4n3C3CCCC3)cc2)cc1` had an IC50 with MDA-MB-231 [1] of over 10000 nM. As for `O=C(O)c1ccc(-c2nc3cccnc3n2C2CCCC2)cc1`, the remaining at 0.75 h, 1 µM in data set [2] and in data set [3] was 80% each time. This compound also showed an IC50 in the data set on MDA-MB-231 [1] of 600 nM. As a reminder, the inhibition is the share of the control response that was lost under treatment. `COC(=O)c1ccc(-c2nc3cccnc3n2C2CCCC2)cc1`: the remaining at 0.75 h, 1 µM in data set [2] and in data set [3] was 52% throughout. 350 nM corresponded to half-maximal inhibition in the data set with MDA-MB-231 [1] (IC50). Further, in the data set on MDA-MB-231 [4], the inhibition at 10 µM was found to be 25%. With `O=C(NC1CC1)c1ccc(-c2nc3cccnc3n2C2CCCC2)cc1`, the remaining at 0.75 h, 1 µM in data set [2] and in data set [3] was 42% each time. The compound further registered a half-inhibitory concentration (IC50) with MDA-MB-231 [1] of 115 nM. This compound also yielded an inhibition at 10 µM with MDA-MB-231 [4] of 42%. The compound `CCNC(=O)c1ccc(-c2nc3cccnc3n2C2CCCC2)cc1` displayed an IC50 in the data set with MDA-MB-231 [1] of 320 nM.

Take `O=C(NCc1ccccc1)c1ccc(-c2nc3cccnc3n2C2CCCC2)cc1`: the half-maximal inhibitory concentration (IC50) in the data set on MDA-MB-231 [1] is 620 nM. In the data set on MDA-MB-231 [1], `NC(=O)c1ccc(-c2nc3cccnc3n2C2CCCC2)cc1` showed a concentration for half-maximal inhibition (IC50) of 8000 nM. Same read-out and setting: in the case of `CN(C)C(=O)c1ccc(-c2nc3cccnc3n2C2CCCC2)cc1` it was 520 nM; in that of `c1cnc2c(c1)nc(-c1cncnc1)n2C1CCCC1`, over 10000 nM. As for `Cc1nnc(-c2ccc(-c3nc4cccnc4n3C3CCCC3)cc2)o1`, the remaining at 0.75 h, 1 µM in data set [2] and in data set [3] was 75% each time. For the same compound, the half-inhibitory concentration (IC50) with MDA-MB-231 [1] came to 21 nM; in data set [5], 25 nM; in data set [6] it was 28 nM; in data set [7] it was 80 nM; in data set [8], 70 nM. For the same compound, the inhibition at 10 µM with MDA-MB-231 [4] stood at 77.3%. As to `CN(C)c1ncc(-c2nc3cccnc3n2C2CCCC2)cn1`, 45 nM corresponded to half-maximal inhibition in the data set with MDA-MB-231 [1] (IC50).

Take `Cc1ccsc1-c1nc2cccnc2n1C1CCCC1`: in the data set with MDA-MB-231 [1], the IC50 came out at 138 nM. The same measure, in the same setting: for `COc1ncc(-c2nc3cccnc3n2C2CCCC2)c(OC)n1` the value was over 10000 nM; for `c1ccc(Cn2nccc2-c2nc3cccnc3n2C2CCCC2)cc1`, 348 nM.

With `Cc1cc(-c2nc3cccnc3n2C2CCCC2)cnc1F`, the midpoint of inhibition with MDA-MB-231 [1], the IC50, lay at 70 nM. In the case of `COc1ccc(-c2nc3cccnc3n2C2CCCC2)cn1`, half-maximal inhibition in the data set with MDA-MB-231 [1] (IC50) required 219 nM. As for `c1cnc2c(c1)nc(-c1ccc3c(c1)OCC3)n2C1CCCC1`, in the data set with MDA-MB-231 [1], 513 nM corresponded to half-maximal inhibition (IC50). The compound `Cn1ccc2cc(-c3nc4cccnc4n3C3CCCC3)ccc21` returned a half-maximal inhibitory concentration (IC50) in the data set with MDA-MB-231 [1] of 90 nM. Consider `c1cnc2c(c1)nc(-c1ccc(-c3nnn[nH]3)cc1)n2C1CCCC1`, for which, in the data set on MDA-MB-231 [1], the IC50 was found to be 765 nM. On the same count and under the same terms, in the case of `c1cncc(-c2ccc(-c3nc4cccnc4n3C3CCCC3)cc2)c1` it was over 10000 nM. On the same count and under the same terms, for `c1cnc2c(c1)nc(-c1ccc(-c3nnco3)cc1)n2C1CCCC1` the value was 87 nM. `CC(=O)O[C@H]1C(=O)[C@@]2(C)[C@H]([C@H](OC(=O)c3ccccc3)[C@]3(O)C[C@H](OC(=O)[C@H](O)[C@@H](NC(=O)c4ccccc4)c4ccccc4)C(C)=C1C3(C)C)[C@]1(OC(C)=O)CO[C@@H]1C[C@@H]2O` [PACLITAXEL]: the IC50 in the data set with MDA-MB-231 [1] is 457 nM; in data set [5] it was 8 nM; in data set [7], 5100 nM; in data set [8] it was 7 nM.
